Results from article PMC10428208, “Phototoxicity of Tridentate Ru(II) Polypyridyl Complex with Expanded Bite Angles toward Mammalian Cells and Multicellular Tumor Spheroids” (Inorganic Chemistry, 2023).
Like-named read-outs stand apart in the source and are kept apart here. Marks after values point to notes of the source that are not given here.

Columns and labels:
[1] = system: HL60 leukemia cells; parameters: method as in PMID 22553960; conditions: cited from earlier work
[2] = system: A549 cell monolayers; parameters: method as in PMID 22553960; conditions: cited from earlier work
[3] = system: HeLa cells; conditions: irradiation dose of 5 J/cm^2; cited from earlier work
Text: It is important to highlight that a direct comparison between the other reported PIs is difficult to make because of the diversity of conditions used to determine PI values. Because PI is influenced by a range of factors, including the cell type extent of permeability of a given agent and the irradiation dose.[72] […] Based on control studies with untreated CHO, A549, and HPAC cell monolayers, we selecte ...

[4] = system: A549 cells
Procedure: (§1) All cell monolayers were prepared as described above for the phototoxicity assay. A549 and CHO cells were treated at varying concentrations of the complexes and incubated for 30 min in the absence of light, HPAC were incubated for 2 h to allow uptake. A 470 nm blue light LED array was used to irradiate the cells in the wells at a total dose of 17 ± 1.64 J/cm^2 (2 h at 2.37 ± 0.23 mW/cm^2). A dark control plate was performed alongside all phototoxicity plates. Irradiation conditions were tested on untreated cells to confirm cells remained viable at this dose before any experiments were performed and each phototoxicity plate included untreated test wells for cell viability comparison. All viability assays were performed in triplicate.
The phototoxicities of the Ru-bqp-ester, Ru-bqp-R8, and Ru-bqp-MPP were next compared across the three cell line monolayers. Two identical plates, a dark control and phototoxicity plate, were prepared and incubated with varying concentrations of Ru-bqp-ester, Ru-bqp-R8, and Ru-bqp-MPP for 30 min or 2 h depending on the cell line. The test solutions were then decanted, and the wells replaced with phenol red free media. The phototoxicity plate was irradiated using a 470 nm LED, corresponding to which is close to the absorbance maximum associated with the ^1MLCT of the complex, total irradiation dose 17 ± 1.64 J/cm^2 (constituting 2 h at 2.37 ± 0.23 mW/cm^2) at 37 °C, and the control plate was maintained under the same conditions in the dark. The cells were then incubated for a further 21.5 h at 37 °C with 5% CO2 to allow for cell recovery. An alamar blue assay was performed to assess cell viability.
To overcome potential efflux of the complexes from the A549 cells, a shorter complex incubation time of 30 min was selected prior to irradiation.

[5] = system: A549 cells; conditions: read-out: IC50, dark toxicity; A549, 24 h incubation in the dark, alamar blue added immediately, no recovery, N=3
Procedure: (§2) The alamar blue assay (Invitrogen) was used to assess the viability of A549, CHO, and HPAC cell monolayers treated with the Ru(II) probes, Ru-bqp-ester, Ru-bqp-MPP, Ru-bqp-R8. CHO, A549, and 2D HPAC cells were seeded in a 96-well plate (Nunc, flat bottom cell culture treated) at 1 × 10^4 cells per well, i.e., in 100 μL media for 24 h at 37 °C with 5% CO2. Ru-bqp-ester, Ru-bqp-R8, and Ru-bqp-MPP were added for 24 h at 37 °C and 5% CO2 in the absence of light. The alamar blue (Resazurin) assay was performed to measure cell viability by replacing the test solution with 100 μL of a 10% v/v media/resazurin solution and incubating for 5 h at 37 °C in the absence of light. Absorbance was measured using a BMG Labtech ClarioStar (plus) plate reader at 570 and 600 nm (corrected for background subtraction). Cell viability is presented as a percentage (%) compared to untreated control wells.
(§3) The alamar blue (Resazurin) assay was used to assess cell viability of CHO, A549, and HPAC cell monolayers after 24 h incubation in the dark with the complexes and conjugates. In the presence of metabolically active cells, the alamar blue dye is reduced to resorufin and changes from navy blue to a pink color depending on the number of viable cells. Thus, this assay can be used as a simple direct indicator of cell viability. […]

[6] = system: CHO cells; experiment: Phototoxicity with dark control plate, 470 nm LED, alamar blue; type: cell-based, Chinese hamster; conditions: 30 min incubation, 470 nm LED 17 J/cm^2, alamar blue, triplicate, read-out: IC50 under irradiation
Procedure: as §1
The test solutions were then decanted, and the wells replaced with phenol red free media. The phototoxicity plate was irradiated using a 470 nm LED, corresponding to which is close to the absorbance maximum associated with the ^1MLCT of the complex, total irradiation dose 17 ± 1.64 J/cm^2 (constituting 2 h at 2.37 ± 0.23 mW/cm^2) at 37 °C, and the control plate was maintained under the same conditions in the dark. […]
Similar to the phototoxicity studies in A549 cells, an incubation time of 30 min was selected for CHO cells to allow uptake. […] Cell viability was determined relative to untreated control wells using an alamar blue assay. […]

[7] = system: HPAC cell monolayers; type: cell-based, human; conditions: 24 h incubation in the dark, alamar blue added immediately, no recovery, N=3, read-out: IC50, dark toxicity
Procedure: as §2, §3

[8] = system: HPAC multicellular spheroids (3D); type: cell-based, human; conditions: 24 h treatment, 23.5 h recovery, CellTiter-Glo 3D, average of three plates
Procedure: Spheroid viability was evaluated using a CellTiter-Glo 3D assay. Although the alamar blue assay is a robust and reliable option for 2D cell viability, the CellTiter-Glo 3D assay is specifically designed to penetrate deeper into 3D cell culture and thus offers better specificity for these studies. Cells were seeded in round-bottom 96 well plates at 2 × 10^4 cells per well and grown for 96 h. The cells were treated for 24 h and a media change performed. A 470 nm LED was used to irradiate the spheroids at 4.27 ± 0.41 J/cm^2 (30 min at 2.37 ± 0.23 mW/cm^2) and a dark control plate was performed simultaneously. Irradiation conditions were tested on untreated spheroids to confirm whether viability remained unaffected at this irradiation dosage before any experiments were performed. The spheroids were allowed to recover and the CellTiter-Glo 3D assay was performed to determine cell viability as per the manufacturer’s protocol. Percentage cell viability was determined relative to the untreated control spheroids.
The dark and phototoxicity of the parent and peptide conjugates were also assessed in HPAC spheroids. […] Cell viability was determined using the CellTiter-Glo 3D luminescence-based assay, and viability assays were performed in triplicate. […] As in the 2D alamar blue assay protocol, % viability is calculated relative to untreated control spheroids.

[9] = system: HPAC spheroids; experiment: Uptake in spheroids, confocal imaging; conditions: 24 h incubation
Procedure: HPAC cells were seeded in U-bottom 96 well-plates pre-treated with 0.5% polyHEMA [poly(2-hydroxyethyl methacrylate), Sigma in 95% ethanol] at 2 × 10^4 cells per well. The plate was then centrifuged at 700 rpm at 37 °C using a BMG Labtech ClarioStar (plus) plate reader for 10 min. The cells were incubated for 96 h to allow spheroid formation before any dye was added for imaging studies. Ru-bqp-ester, Ru-bqp-MPP, and Ru-bqp-R8 were added to the spheroids at 30 and 100 μM in the 96 well plates and after 24 h incubation, the spheroids were carefully transferred to an 8-chamber slide (ibidi), with a single spheroid per chamber, and directly imaged using a Leica TCS DMi8 confocal microscope (40× oil immersion objective). Hoechst 33342 nuclear stain (1 μg/mL) was added to the spheroids for 45 min as a contrast agent and excited using a 405 nm laser with emission collected between 425 and 475 nm. The Ru(II) complexes were excited using a white light laser at 490 nm and emission collected between 580 and 730 nm. Spheroid images were acquired using z-scanning across the z-axis of the samples. On average, 40–50 images were acquired per z-scan and used to obtain 3D spheroid reconstructions using Leica Application Suite X (LAS X) software.
Confocal fluorescence imaging was performed to determine if the cellular uptake observed in 2D culture extends to 3D models. […]

[10] = Photophysical measurements (luminescence lifetime, quantum yield); type: physicochemical
Procedure: Absorbance measurements of the Ru(II) complexes at 20 μM were performed using a Jasco V670 spectrophotometer. Emission spectra were collected using a Varian Cary Eclipse fluorescence spectrophotometer and luminescent lifetime measurements were performed on a PicoQuant FluoTime 100 FLS TCSPC system using a 450 nm pulsed laser and an external pulse generator. Lifetime decay curves were analyzed using the PicoQuant Fluofit software with fitting criteria; 0.9 < X^2 < 1.1. For O2 sensitivity studies, the emission spectrum and luminescent lifetime of each complex (10 μM) were recorded under O2 saturation, and after N2 purge for 20 min. All measurements were performed in triplicate and reported as the mean ± SD.

[11] = system: CHO cells; type: cell-based, Chinese hamster; conditions: 24 h incubation in the dark, alamar blue added immediately, no recovery, N=3, read-out: IC50, dark toxicity
Procedure: as §2, §3

[12] = parameters: method as in doi:10.3390/organoids1020012, PMID 35485712; conditions: previously published, 298 K, deaerated MeOH/EtOH solution; printed in the MeCN row; cited from earlier work
[13] = system: HPAC 2D cell monolayers; type: cell-based, human
Procedure: as §1
The test solutions were then decanted, and the wells replaced with phenol red free media. The phototoxicity plate was irradiated using a 470 nm LED, corresponding to which is close to the absorbance maximum associated with the ^1MLCT of the complex, total irradiation dose 17 ± 1.64 J/cm^2 (constituting 2 h at 2.37 ± 0.23 mW/cm^2) at 37 °C, and the control plate was maintained under the same conditions in the dark. The cells were then incubated for a further 21.5 h at 37 °C with 5% CO2 to allow for cell recovery. An alamar blue assay was performed to assess cell viability.
The HPAC cells required a longer incubation period of 2 h prior to irradiation to account for slower uptake. […] In summary, Ru-bqp-ester is minimally toxic in the dark but highly phototoxic in all test cells when activated using a 470 nm LED. Furthermore, the peptide conjugates Ru-bqp-R8 and Ru-bqp-MPP show phototoxic potential in cancerous cell lines A549 and HPAC selected for analysis. The increased uptake of the MPP peptide conjugate into the mitochondria, as determined by our co-localization studies, could be linked to the higher phototoxicity of the complex in A549 and HPAC cells and also the increased dark toxicity in HPAC and CHO cell monolayers in comparison to the parent and R8 peptide conjugate.

NCC(=O)CCC(=O)O [ALA, aminolevulinic acid]
PI [1]: > 18 | PI [2]: 4.2

Photofrin
PI [3]: > 10

[Ru(bqp)(bqpCOOEt)]^2+ [Ru-bqp-ester]
cell viability, A549 dark control ([4]; dark control plate, 30 min incubation, up to 100 μM, not graphed): > 80% | A549 cells dead following photoirradiation ([4]; dose of <5 μM, 30 min incubation, 470 nm LED 17 J/cm^2): More than 70% | IC50 ([4]; read-out: IC50 under irradiation, A549, 30 min incubation, 470 nm LED 17 ± 1.64 J/cm^2 (2 h), 21.5 h recovery, alamar blue): < 5 µM | IC50 [5]: > 100 µM | IC50 [6]: < 5 µM | IC50 [7]: > 100 µM | IC50 ([8]; 470 nm LED 4.27 ± 0.41 J/cm^2 (30 min), read-out: IC50 light, HPAC multicellular spheroids (3D)): > 100 µM | IC50 ([8]; dark control plate, read-out: IC50 dark, HPAC multicellular spheroids (3D)): > 100 µM | uptake in HPAC spheroids ([9]; 30 μM): some uptake | uptake in HPAC spheroids ([9]; 100 μM): complete internalization | τlum aerated ([10]; MeCN, mean ± SD of triplicate): 384 ± 1 ns | τlum aerated ([10]; PBS (pH 7.4), 450 nm pulsed laser, TCSPC, mean ± SD of triplicate): 782 ± 18 ns | τlum deaerated ([10]; PBS (pH 7.4), deaerated (N2 purge 20 min), mean ± SD of triplicate): 1320 ± 20 ns | emission lifetime on deaeration ([10]; PBS buffer (pH 7.4), deaerated): over 1.3 μs | IC50 [11]: > 100 µM | emission quantum yield Φ [12]: 4% | τlum deaerated [12]: 4300 ^a ns | IC50 ([13]; 2 h incubation, 470 nm LED 17 J/cm^2, read-out: IC50 under irradiation, HPAC cells): 0.77 ± 0.11 µM | IC50 ([13]; dark control plate, 2 h incubation then recovery in the dark, alamar blue, average of three plates, triplicate per plate, read-out: IC50 dark, HPAC 2D cell monolayers): 585 ± 6.28 µM | PI (phototoxic index), HPAC 2D cell monolayers ([13]; ratio of dark to light IC50 values, 17 ± 1.64 J/cm^2 at 470 nm): 760
